Experimental findings from patent publication US12030883B2, “Hetero-tricyclic compounds as inhibitors of KRAS” (Incyte Corporation, priority 2021, dated 2024) are described below.

Test [1] addresses T1, KRAS G12D (Homo sapiens, UniProt P01116, G12D). The test can be described thus: KRAS_G12D pERK assay (cellular pERK HTRF assay). It counts as cell-based. Further details: host or cells: A427 or HPAF-II. Particulars: KRAS G12D cells (A427, HPAF-II named in method), 2 hours incubation, Phospho-ERK 1/2 HTRF; read-out: G12D_PERK (KRAS_G12D pERK assay IC50). As for the experimental part: MIA PaCa-2 (KRAS G12C; ATCC® CRL-1420), A427 (KRAS G12D; ATCC® HTB53), HPAF-II (KRAS G12D; ATCC® CRL-1997) and NCI-H838 (KRAS WT; ATCC® CRL-5844) cells are purchased from ATCC and maintained in RPMI 1640 media supplemented with 10% FBS (Gibco/Life Technologies). The cells are plated at 5000 cells per well (8 uL) into Greiner 384-well low volume, flat-bottom, tissue culture treated white plates and incubated overnight at 37° C., 5% CO2. The next morning, test compound stock solutions are diluted in media at 3× the final concentration, and 4 uL are added to the cells. The plate is mixed by gentle rotation for 30 seconds (250 rpm) at room temperature. The cells are incubated with the KRAS G12C and G12D compounds for 4 hours or 2 hours respectively at 37° C., 5% CO2.
4 uL of 4× lysis buffer with blocking reagent (1:25) (Cisbio) are added to each well and plates are rotated gently (300 rpm) for 30 minutes at room temperature. 4 uL per well of Cisbio anti Phospho-ERK 1/2 d2 is mixed with anti Phospho-ERK 1/2 Cryptate (1:1) are added to each well, mixed by rotation and incubated overnight in the dark at room temperature. Plates are read on the Pherastar plate reader at 665 nm and 620 nm wavelengths. IC50 determination is performed by fitting the curve of inhibitor percent inhibition versus the log of the inhibitor concentration using the GraphPad Prism 7 software.
Background: Time-resolved FRET reads energy transfer from a long-lived donor to a nearby acceptor.

The next test has as its target KRAS G12V (Homo sapiens, UniProt P01116, G12V). The test can be described thus: GDP-GTP exchange assay, KRAS G12V (bodipy-GDP/GppNHp, SOS1). It counts as biochemical. Particulars: bodipy-loaded KRAS G12V 2.5 nM, 3 hours pre-incubation with inhibitor, SOS1 150 nM, GppNHp 500 uM; read-out: G12V_exchange (KRAS_G12V exchange assay IC50). The method, then:
(§1) The inhibitor potency of the exemplified compounds was determined in a fluorescence based guanine nucleotide exchange assay, which measures the exchange of bodipy-GDP (fluorescently labeled GDP) for GppNHp (Non-hydrolyzable GTP analog) to generate the active state of KRAS in the presence of SOS1 (guanine nucleotide exchange factor). Inhibitors were serially diluted in DMSO and a volume of 0.1 μL was transferred to the wells of a black low volume 384-well plate. Five μL/well volume of bodipy-loaded KRAS G12D or G12V diluted to a final concentration of 2.5 nM in assay buffer (25 mM Hepes pH 7.5, 50 mM NaCl, 10 mM MgCl2 and 0.01% Brij-35) was added to the plate and pre-incubated with inhibitor for 4 hours (G12D) or 3 hours (G12V) at ambient temperature. A cyclic peptide described to selectively bind G12D mutant (Sakamoto et al., BBRC 484.3 (2017), 605-611) or internal compounds with confirmed binding were used as positive controls in the assay plates. The exchange was initiated by the addition of a 5 μL/well volume containing 1 mM GppNHp and 300 nM SOS1 in assay buffer. The 10 μL/well reaction concentration of the bodipy-loaded KRAS G12D or G12V, GppNHp, and SOS1 were 2.5 nM, 500 uM, and 150 nM, respectively.
(§2) Either GraphPad prism or XLfit was used to analyze the data. The IC50 values were derived by fitting the data to a four parameter logistic equation producing a sigmoidal dose-response curve with a variable Hill coefficient. Prism equation: Y=Bottom+(Top−Bottom)/(1+10^((LogIC50-X)*Hill slope)); XLfit equation: Y=(A+((B−A)/(1+((X/C)^D)))) where X is the logarithm of inhibitor concentration and Y is the response.

For test [2], the target named is T1, KRAS G12D. The test can be described thus: GDP-GTP exchange assay, KRAS G12D (bodipy-GDP/GppNHp, SOS1). Particulars: bodipy-loaded KRAS G12D 2.5 nM, 4 hours pre-incubation with inhibitor, SOS1 150 nM, GppNHp 500 uM; read-out: G12D_exchange (KRAS_G12D exchange assay IC50). Format: biochemical. The method, then: as §1, §2

Each structure is given as a SMILES string.

T1 sequence (P01116 1-188 isoform P01116-2 G12D): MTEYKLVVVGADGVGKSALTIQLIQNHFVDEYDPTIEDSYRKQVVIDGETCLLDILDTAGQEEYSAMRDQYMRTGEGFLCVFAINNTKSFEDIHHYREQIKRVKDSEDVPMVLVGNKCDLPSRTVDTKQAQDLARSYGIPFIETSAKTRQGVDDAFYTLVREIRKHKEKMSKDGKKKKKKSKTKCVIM
Sequence of KRAS G12V (P01116 1-188 isoform P01116-2 G12V): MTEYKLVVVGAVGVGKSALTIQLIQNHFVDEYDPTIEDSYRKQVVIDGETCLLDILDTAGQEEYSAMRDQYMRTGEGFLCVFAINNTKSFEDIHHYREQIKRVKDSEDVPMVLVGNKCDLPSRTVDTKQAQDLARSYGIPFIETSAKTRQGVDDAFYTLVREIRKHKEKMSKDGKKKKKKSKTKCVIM

For `CN(C)C1CN(c2nc3c(F)c(-c4cc(O)cc5ccccc45)c(CCC#N)cc3c3c2NC(=O)CN3C2C3CNC2C3)C1` (single isomer, unassigned) [Example 13a, 3-(1-((endo)-2-Azabicyclo[2.1.1]hexan-5-yl)-5-(3-(dimethylamino)azetidin-1-yl)-7-fluoro-8-(3-hydroxynaphthalen-1-yl)-3-oxo-1,2,3,4-tetrahydropyrazino[2,3-c]quinolin-9-yl)propanenitrile], the results for the IC50 on KRAS G12D [1], on KRAS G12V and at KRAS G12D [2] were 1 to 5 µM, not above 0.1 µM and not above 0.1 µM, respectively.
For the compound `CC1Cc2c(OC[C@@H]3CCCN3C)nc3c(F)c(-c4cc(O)cc5ccccc45)c(CCC#N)cc3c2N(C2C3CNC2C3)C1` (single isomer, unassigned) [Example 14a], the results for the IC50 at KRAS G12D [1], on KRAS G12V and at KRAS G12D [2] were 0.1 to 1 µM, not above 0.1 µM and not above 0.1 µM, respectively.
For the compound `CC1Cc2c(OC[C@@H]3CCCN3C)nc3c(F)c(-c4cc(O)cc5ccccc45)c(CCC#N)cc3c2N(C2C3CNC2C3)C1` (single isomer, unassigned) [Example 14b], the IC50 (as a rule, the concentration that inhibits the measured activity by half) at KRAS G12D [1] is 1 to 5 µM; at KRAS G12V it was not above 0.1 µM; on KRAS G12D [2], not above 0.1 µM.
For the compound `C[C@H](Oc1nc2c(F)c(-c3cc(O)cc4ccccc34)c(CCC#N)cc2c2c1CCCN2C1C2CNC1C2)[C@@H]1CCCN1C` (single isomer, unassigned) [Example 15b], the half-maximal inhibitory concentration (IC50) at KRAS G12D [1], at KRAS G12V and at KRAS G12D [2] was not above 0.1 µM each time.
For the compound `C[C@@H](CN(C)C)Oc1nc2c(F)c(-c3cc(O)cc4ccccc34)c(CCC#N)cc2c2c1CCCN2C1C2CNC1C2` (single isomer, unassigned) [Example 16b], the IC50 was 0.1 to 1 µM at KRAS G12D [1], not above 0.1 µM at KRAS G12V and not above 0.1 µM on KRAS G12D [2].
With `C[C@H](Oc1nc2c(F)c(-c3cccc(Cl)c3Cl)c(CCC#N)cc2c2c1c(=O)c(-c1cnn(C)c1)cn2[C@H]1[C@H]2CN[C@@H]1C2)[C@@H]1CCCN1C` (single isomer, unassigned) [Example 24a], the IC50 on KRAS G12D [1] was 5 to 10 µM; at KRAS G12V, not above 0.1 µM; on KRAS G12D [2], not above 0.1 µM.
`C[C@H](Oc1nc2c(F)c(-c3cccc(Cl)c3Cl)c(CCC#N)cc2c2c1c(=O)c(-c1cnn(C)c1)cn2[C@H]1[C@H]2CN[C@@H]1C2)[C@@H]1CCCN1C` (single isomer, unassigned) [Example 24b]: the concentration for half-maximal inhibition (IC50) was 0.1 to 1 µM at KRAS G12D [1], not above 0.1 µM at KRAS G12V and not above 0.1 µM on KRAS G12D [2].
Take `Cc1cc2c(nc(O[C@@H](C)[C@@H]3CCCN3C)c3c(=O)c(Nc4cnn(C)c4)cn([C@H]4[C@H]5CN[C@@H]4C5)c32)c(F)c1-c1cccc2c1C(C#N)CCC2` (single isomer, unassigned) [Example 26b]: the concentration for half-maximal inhibition (IC50) at KRAS G12D [1] was 5 to 10 µM; on KRAS G12V, 0.1 to 1 µM; at KRAS G12D [2], not above 0.1 µM.
In the case of `Cc1cc2c(nc(O[C@@H](C)[C@@H]3CCCN3C)c3c(=O)ccn([C@H]4[C@H]5CN[C@@H]4C5)c32)c(F)c1-c1cccc2c1C(C#N)CCC2` (stereo partly drawn) [Example 23, 8-(1-((1R,4R,5S)-2-azabicyclo[2.1.1]hexan-5-yl)-7-fluoro-9-methyl-5-((S)-1-((S)-1-methylpyrrolidin-2-yl)ethoxy)-4-oxo-1,4-dihydrobenzo[h][1,6]naphthyridin-8-yl)-1,2,3,4-tetrahydronaphthalene-1-carbonitrile], the concentration for half-maximal inhibition (IC50) on KRAS G12D [1], on KRAS G12V and at KRAS G12D [2] was not above 0.1 µM throughout.
